The assay concerns the target full-length human O-GlcNAc-β-N-acetylglucosaminidase (OGA) (Homo sapiens (Human), UniProt O60502). The assay is described as follows: In Vitro Human OGA Enzyme Assay. In kind it is biochemical. The conditions noted are these: His-OGA enzyme, FD-GlcNAc substrate 6.7 μM, 30 min pre-incubation, 60 min at room temperature, pH 7. The protocol:
In Vitro Human OGA Enzyme Assay
The nucleotide sequence encoding full-length human O-GlcNAc-β-N-acetylglucosaminidase (NM_012215) is inserted into pFastBac1 (Invitrogen) vector with an N-terminal poly-histidine (HIS) tag. Baculovirus generation is carried out according to the Bac-to-Bac Baculovirus Expression system (Invitrogen) protocol. Sf9 cells are infected at 1.5×10^6 cells/mL using 10 mL of P1 virus per Liter of culture and incubated at 28° C. for 48 hrs. Cells are spun down, rinsed with PBS and the pellets stored at −80° C. The above OGA protein (His-OGA) is purified as follows: 4 L of cells are lysed in 200 mL of buffer containing 50 mM Tris, pH 8.0, 300 mM NaCl, 10% glycerol, 10 mM imidazole, 1 mM dithiothreitol (DTT), 0.1% Triton™ X-100, 4 tablets of protease inhibitors (complete EDTA-Free, Roche) for 45 min at 4° C. This cell lysate is then spun for 40 min at 16500 rpm at 4° C., and supernatant incubated with 6 mL of Ni-NTA resin (nickel-nitrilotriacetic acid) for 2 h at 4° C.
Resin is then packed onto column and washed with 50 mM Tris, pH 8.0, 300 mM NaCl, 10% glycerol, 10 mM imidazole, 0.1% Triton™ X-100, 1 mM DTT, followed by 50 mM Tris, pH 8.0, 150 mM NaCl, 10 mM imidazole, 10% glycerol, 1 mM DTT. The proteins are eluted with 50 mM Tris, pH 8.0, 150 mM NaCl, 300 mM imidazole, 10% glycerol, 1 mM DTT. Pooled His-OGA containing fractions are concentrated to 6 ml and loaded onto Superdex75 (16/60). The protein is eluted with 50 mM Tris, pH 8.0, 150 mM NaCl, 10% glycerol, 2 mM DTT. Fractions containing His-OGA are pooled and protein concentration measured with BCA ([…]).
The OGA enzyme catalyses the removal of O-GlcNAc from nucleocytoplasmic proteins. To measure this activity Fluorescein di-N-acetyl-β-N-acetyl-D-glucosaminide (FD-GlcNAc, Kim, Eun Ju; Kang, Dae Ook; Love, Dona C.; Hanover, John A. Carbohydrate Research (2006), 341(8), 971-982) is used as a substrate at a final concentration of 6.7 μM. This fluorogenic substrate becomes fluorescent upon cleavage by OGA, so that the enzyme activity can be measured by the increase in fluorescence detected at 535 nm (excitation at 485 nm).
The assay buffer is prepared to give a final concentration of 50 mM […], 0.01% bovine serum albumin and 0.01% Triton™ X-100 in water, at pH 7. Compounds to be tested are diluted in pure dimethyl sulfoxide (DMSO) using ten point concentration response curves. Maximal compound concentration in the reaction mixture is 30 or 1 μM. Compounds at the appropriate concentration are pre-incubated with OGA enzyme for 30 minutes before the reaction is started by the addition of substrate. The final enzyme concentration is 3.24 nM or 0.5 nM, for the 30 or 1 μM maximal compound concentration, respectively. Reactions are allowed to proceed for 60 min at room temperature. Then, without stopping the reaction, fluorescence is read. IC50 values are calculated by plotting the normalized data vs. log of the compound and fitting the data using a four parameter logistic equation.
The compounds of Examples 1 through 6 were tested essentially as described above.

Sequence of full-length human O-GlcNAc-β-N-acetylglucosaminidase (OGA) (O60502 whole entry): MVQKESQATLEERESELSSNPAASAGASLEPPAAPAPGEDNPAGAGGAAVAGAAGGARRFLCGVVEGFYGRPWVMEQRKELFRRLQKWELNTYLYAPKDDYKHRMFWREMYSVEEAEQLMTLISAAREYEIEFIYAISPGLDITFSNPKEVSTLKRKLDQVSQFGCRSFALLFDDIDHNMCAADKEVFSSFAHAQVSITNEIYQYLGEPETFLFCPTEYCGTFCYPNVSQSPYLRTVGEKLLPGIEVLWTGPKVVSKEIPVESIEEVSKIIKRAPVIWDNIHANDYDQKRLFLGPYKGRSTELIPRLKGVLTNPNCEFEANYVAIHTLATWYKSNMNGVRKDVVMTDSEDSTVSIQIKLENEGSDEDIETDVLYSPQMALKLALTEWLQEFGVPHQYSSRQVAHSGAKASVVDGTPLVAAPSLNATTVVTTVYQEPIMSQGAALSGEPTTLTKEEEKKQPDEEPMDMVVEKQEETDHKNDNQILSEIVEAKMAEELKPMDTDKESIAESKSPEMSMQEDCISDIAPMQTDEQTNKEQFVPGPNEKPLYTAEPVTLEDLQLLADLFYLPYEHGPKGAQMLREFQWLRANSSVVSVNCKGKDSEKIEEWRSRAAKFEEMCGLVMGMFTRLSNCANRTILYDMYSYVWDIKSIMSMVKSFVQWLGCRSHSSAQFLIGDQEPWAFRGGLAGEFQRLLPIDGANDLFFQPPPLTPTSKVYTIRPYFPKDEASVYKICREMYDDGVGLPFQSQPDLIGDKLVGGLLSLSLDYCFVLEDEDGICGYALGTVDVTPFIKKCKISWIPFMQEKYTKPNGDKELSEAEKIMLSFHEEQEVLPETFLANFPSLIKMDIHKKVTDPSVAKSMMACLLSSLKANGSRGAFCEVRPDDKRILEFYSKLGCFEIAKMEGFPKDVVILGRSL

The compound `CC(=O)N1Cc2cnc(O[C@@H]3C[C@H](C)N(Cc4cc5nc(C)sc5cc4F)C3)nc2C1` [Example 1, 1-(2-(((3R,5S)-1-((6-fluoro-2-methylbenzo[d]thiazol-5-yl)methyl)-5-methylpyrrolidin-3-yl)oxy)-5,7-dihydro-6H-pyrrolo[3,4-d]pyrimidin-6-yl)ethan-1-one] returned an IC50 of 465 ± 224 pM. As for `CC(=O)N1Cc2ccc(O[C@@H]3C[C@H](C)N(Cc4cc5nc(C)sc5cc4F)C3)nc2C1` [Example 2, 1-(2-(((3R,5S)-1-((6-fluoro-2-methylbenzo[d]thiazol-5-yl)methyl)-5-methylpyrrolidin-3-yl)oxy)-5,7-dihydro-6H-pyrrolo[3,4-b]pyridin-6-yl)ethan-1-one], half-maximal inhibition (IC50) was put at 214 ± 37 pM.

As for `CC(=O)N1Cc2cnc(O[C@@H]3C[C@H](C)N(Cc4cc5nc(C)sc5cc4F)C3)cc2C1` [Example 3, 1-[6-[(3R,5S)-1-[(6-fluoro-2-methyl-1,3-benzothiazol-5-yl)methyl]-5-methyl-pyrrolidin-3-yl]oxy-1,3-dihydropyrrolo[3,4-c]pyridin-2-yl]ethanone], half-maximal inhibition (IC50) was put at 782 ± 87 pM. With `CC(=O)N1Cc2cc(O[C@@H]3C[C@H](C)N(Cc4cc5nc(C)sc5cc4F)C3)cnc2C1` [Example 4, 1-[3-[(3R,5S)-1-[(6-fluoro-2-methyl-1,3-benzothiazol-5-yl)methyl]-5-methyl-pyrrolidin-3-yl]oxy-5,7-dihydropyrrolo[3,4-b]pyridin-6-yl]ethanone], the midpoint of inhibition, the IC50, lay at 592 ± 68 pM. Next, `CC(=O)N1Cc2cnc(O[C@@H]3C[C@H](C)N([C@@H](C)c4cc5nc(C)sc5cc4F)C3)nc2C1` [Example 5, 1-[2-[(3R,5S)-1-[(1S)-1-(6-fluoro-2-methyl-1,3-benzothiazol-5-yl)ethyl]-5-methyl-pyrrolidin-3-yl]oxy-5,7-dihydropyrrolo[3,4-d]pyrimidin-6-yl]ethanone]: 495 ± 109 pM; `CC(=O)N1Cc2ccc(O[C@@H]3C[C@H](C)N([C@@H](C)c4cc5nc(C)sc5cc4F)C3)nc2C1` [Example 6, 1-[2-[(3R,5S)-1-[(1S)-1-(6-fluoro-2-methyl-1,3-benzothiazol-5-yl)ethyl]-5-methyl-pyrrolidin-3-yl]oxy-5,7-dihydropyrrolo[3,4-b]pyridin-6-yl]ethanone]: 385 ± 88 pM.

A word on the IC50: it is the point on the concentration scale where inhibition reaches its midpoint. Read a high IC50 as weaker potency.

Source of the values: patent US10752632B2, “6-fluoro 2-methylbenzo[d]thiazol-5-yl compounds” (Eli Lilly and Company, priority 2018, dated 2020).
